Read-outs that look alike come from different tables or passages of the source.
Legend:
STIP-1 cells = test: cells; assay type: cell-based, Bester (Huso huso X Acipenser ruthenus); conditions: for EC50: read-out: EC50 (toxicity concentration value which effects on 50% of the cells); for toxicity ranking to the STIP-1 cells: within the tested series (nine heavy metals / twelve phenols)
Text: (§1) The Alamar Blue assay is one of the bioassay methods being developed to measure the cellular metabolisms of the animal cells or the like. The Alamar Blue pigment is an oxidation-reduction pigment which should be incorporated in a cell for its reduction. The Alamar Blue pigment has the characteristics to be changed from an oxidation type (non-fluorescence/blue) to a reduction type (fluorescence/red) by the reduction reaction of the respiratory metabolism system done in mitochondria. If the cellular metabolism is normal, the reduction reaction proceeds in normal. On the other hand, if the cellular metabolism becomes abnormal, the oxidation type is remained as it is. Therefore, the abnormality of a cellular metabolism can be determined by measuring the change in color. Furthermore, the measurement of a cellular metabolism may be based on the fluorescence and the light absorption. In this case the fluorescence is monitored by an excitation wavelength of 530 nm to 560 nm and a detection wavelength of 590 nm, and the light absorption is monitored at wavelengths of 570 nm and 600 nm.
Cells were cultured in a 96-well microtiter plate in a CO2 incubator (air atmosphere) at 20° C. until it became confluent. The culture was performed using a culture medium prepared by adding 10% fetal bovine serum (FBS) (manufactured by Gibco Co., Ltd.), penicillin (10 unit/ml) and streptomycin (50 μg/ml) in a Leibovitz's L15 culture medium (manufactured by Gibco Co., Ltd.).
A 0.2M aqueous solution of a specimen (cadmium chloride, CdCl2.2H2O) was prepared and was then sterilized by passing through a filter of 0.2 μm in pore size to be preserved at 4° C. […] For a comparison example, the culture medium in the absence of the specimen was inoculated in a well. After 24 hours passed, an Alamar Blue pigment was added and an additional culture was continued for further 24 hours.
Subsequently, by using a microplate reader, the light absorbance of each well was measured using two wavelengths (570 nm and 600 nm). The inhibition value of a cellular metabolism with the cadmium aqueous solution was measured as a reduction rate of a well (a sample) inoculated with a cadmium aqueous solution to a well only containing the culture medium as a control. The calculation was performed using the following equation.
A=sample well (A570 nm−A600 nm)−blank well (A570 nm−A600 nm), and
B=control well (A570 nm−A600 nm)−blank well (A570 nm−A600 nm).
In addition, (A/B)×100 means a survival rate (%) of cells.
(B) Evaluations of toxicities of eight kinds of heavy metals except of cadmium to the STIP-1 cells were performed by the same way as described in the above (A).

STIP-3 cells = test: Cytotoxic test using STIP-3 cells, Alamar Blue assay; assay type: cell-based, Bester (Huso huso X Acipenser ruthenus); conditions: 20° C., 24 hours with specimen, then Alamar Blue for further 24 hours, read-out: EC50 (toxicity concentration value which effects on 50% of the cells)
Text: as §1
Cells were cultured in a 96-well microtiter plate in a CO2 incubator (air atmosphere) at 20° C. until it became confluent. […]
Subsequently, by using a microplate reader, the light absorbance of each well was measured using two wavelengths (570 nm and 600 nm). […]

[1] = Huso huso, STIP-1 cells, 20° C., 24 hours with specimen, then Alamar Blue for further 24 hours
[2] = STIP-1 cells, 20° C., 24 hours with specimen, then Alamar Blue for further 24 hours

Compound	EC50 (STIP-1 cells; [1]) [µM]	EC50 (STIP-1 cells; [2]) [µM]	further results
Oc1cccc(Cl)c1Cl [2,3-dichlorophenol]	80		
O=[N+]([O-])c1ccc(O)cc1 [p-nitrophenol]	350		
O.O.O.O.[Cl][Mn][Cl] [MnCl2.4H2O]			toxicity to the STIP-1 cells more than that to the culture cells of other fish origins (STIP-1 cells): about 10 times; EC50 (STIP-1 cells): 400 µM
[Cl][Cu][Cl] [CuCl2.2H2O]		1320	
Tributyl tin		0.9	EC50 (STIP-1 cells; STIP-1 cells, 20° C., 24 hours with specimen, then Alamar Blue for further 24 hours, listed as tributyl tin): 0.9 µM; toxicity at a concentration lower than other heavy metals (STIP-1 cells; STIP-1 cells, compared with other heavy metals): about 100 times; toxicity ranking to the STIP-1 cells (STIP-1 cells): strongest toxicity
O=S(=O)([O-])[O-].[Zn+2] [ZnSO4.7H2O]		400	
HgCl2			EC50 (STIP-1 cells): 85 µM
Oc1cc(Cl)ccc1Cl [2,5-dichlorophenol]	56		
Oc1ccc(Cl)c(Cl)c1 [3,4-dichlorophenol]	30		
[Cl][Ni][Cl] [NiCl2.6H2O]			EC50 (STIP-1 cells): > 10000 µM
Oc1ccc(Cl)cc1 [p-chlorophenol]	800		
O=[N+]([O-])[O-].O=[N+]([O-])[O-].[Pb+2] [Pb(NO3)2]		3300	
Oc1cc(Cl)c(Cl)cc1Cl [2,4,5-trichlorophenol]	7		toxicity ranking to the STIP-1 cells (STIP-1 cells): strongest toxicity
Oc1c(Cl)c(Cl)c(Cl)c(Cl)c1Cl [Pentachlorophenol]	90		
[Cl][Cd][Cl] [cadmium, cadmium chloride]		89	EC50 (STIP-3 cells): 100 µM
Oc1c(Cl)cc(Cl)c(Cl)c1Cl [2,3,4,6-tetrachlorophenol]	9		
Oc1ccc(Cl)cc1Cl [2,4-dichlorophenol]	55		
Oc1ccccc1 [Phenol]			EC50 (STIP-1 cells; Huso huso, 24 h): 8600 µM
Oc1c(Cl)cccc1Cl [2,6-dichlorophenol]	900		
[Cl-].[Cl-].[Co+2] [CoCl2.6H2O]		2200	

— patent US7217564B2, “Cytotoxic assay and new established cell line of sturgeon origin” (priority 2002, dated 2007)
